These are literature values, as cited in US9629846B1, “Nutritional supplements for women desiring to become pregnant, and pregnant and nursing women” (Argent Development Group, LLC, priority 2013, dated 2017).

The conditions of data set [1]: dietary iron, heme versus non-heme.
The conditions of data set [2]: nutrient depletion.

As for Heme iron, in data set [1], the absorption is on record as 30%.

Turning to `CN(C)C(=N)N=C(N)N` [metformin], the “effect on folate, magnesium and Vitamin B12 levels” value in data set [2] was “reduce folate, magnesium, and Vitamin B12 levels”.
